# Tests used:
# SR [1] = assay: Cytotoxicity against human SR cells assessed as growth inhibition at 10 uM after 48 hrs by SRB assay; assay type: functional; conditions: read-out: GI
# NCI-H322M = assay: Cytotoxicity against human NCI-H322M cells assessed as growth level at 10 uM after 48 hrs by SRB assay; assay type: functional
# [2] = Cytotoxicity against human HCT116 cells assessed as growth level at 10 uM after 48 hrs by SRB assay; assay type: functional, HCT-116
# 786-0 = assay: Cytotoxicity against human 786-0 cells assessed as growth inhibition at 10 uM after 48 hrs by SRB assay; assay type: functional; conditions: 786-0, 48 h, read-out: GI
# [3] = Cytotoxicity against human SKOV3 cells assessed as growth inhibition at 10 uM after 48 hrs by SRB assay; assay type: functional; conditions: SK-OV-3, 48 h, read-out: GI
# MDA-MB-468 [4] = assay: Cytotoxicity against human MDA-MB-468 cells assessed as growth level at 10 uM after 48 hrs by SRB assay; assay type: functional
# SR [5] = assay: Cytotoxicity against human SR cells assessed as growth level at 10 uM after 48 hrs by SRB assay; assay type: functional
# [6] = Cytotoxicity against human HL-60(TB) cells assessed as growth level at 10 uM after 48 hrs by SRB assay; assay type: functional
# U-251 = assay: Cytotoxicity against human U251 cells assessed as growth level at 10 uM after 48 hrs by SRB assay; assay type: functional
# [7] = Cytotoxicity against human Hs578T cells assessed as growth level at 10 uM after 48 hrs by SRB assay; assay type: functional, Hs-578T
# [8] = Cytotoxicity against human SW620 cells assessed as growth level at 10 uM after 48 hrs by SRB assay; assay type: functional, SW-620
# SN12C [9] = assay: Cytotoxicity against human SN12C cells assessed as growth level at 10 uM after 48 hrs by SRB assay; assay type: functional
# MDA-MB-231 = assay: Cytotoxicity against human MDA-MB-231 cells assessed as growth inhibition at 10 uM after 48 hrs by SRB assay; assay type: functional; conditions: MDA-MB-231, 48 h, read-out: GI
# NCI-H23 [10] = assay: Cytotoxicity against human NCI-H23 cells assessed as growth level at 10 uM after 48 hrs by SRB assay; assay type: functional
# NCI-H460 = assay: Cytotoxicity against human NCI-H460 cells assessed as growth level at 10 uM after 48 hrs by SRB assay; assay type: functional
# [11] = Cytotoxicity against human NCI-ADR-RES cells assessed as growth inhibition at 10 uM after 48 hrs by SRB assay; assay type: functional; conditions: read-out: GI
# NCI-H522 = assay: Cytotoxicity against human NCI-H522 cells assessed as growth level at 10 uM after 48 hrs by SRB assay; assay type: functional
# MDA-MB-468 [12] = assay: Cytotoxicity against human MDA-MB-468 cells assessed as growth inhibition at 10 uM after 48 hrs by SRB assay; assay type: functional; conditions: MDA-MB-468, 48 h, read-out: GI
# A549 = assay: Cytotoxicity against human A549 cells assessed as growth inhibition at 10 uM after 48 hrs by SRB assay; assay type: functional; conditions: A549, 48 h, read-out: GI
# [13] = Cytotoxicity against human OVCAR4 cells assessed as growth level at 10 uM after 48 hrs by SRB assay; assay type: functional, OVCAR-4
# NCI-H226 = assay: Cytotoxicity against human NCI-H226 cells assessed as growth inhibition at 10 uM after 48 hrs by SRB assay; assay type: functional; conditions: NCI-H226, 48 h, read-out: GI
# MDA-MB-435 = assay: Cytotoxicity against human MDA-MB-435 cells assessed as growth level at 10 uM after 48 hrs by SRB assay; assay type: functional
# [14] = Cytotoxicity against human SF295 cells assessed as growth inhibition at 10 uM after 48 hrs by SRB assay; assay type: functional; conditions: SF-295, 48 h, read-out: GI
# KM12 = assay: Cytotoxicity against human KM12 cells assessed as growth inhibition at 10 uM after 48 hrs by SRB assay; assay type: functional; conditions: KM12, 48 h, read-out: GI
# [15] = Cytotoxicity against human IGROV1 cells assessed as growth level at 10 uM after 48 hrs by SRB assay; assay type: functional, IGROV-1
# [16] = Cytotoxicity against human DU145 cells assessed as growth inhibition at 10 uM after 48 hrs by SRB assay; assay type: functional; conditions: DU-145, 48 h, read-out: GI
# [17] = Cytotoxicity against human UACC257 cells assessed as growth level at 10 uM after 48 hrs by SRB assay; assay type: functional, UACC-257
# MCF7 = assay: Cytotoxicity against human MCF7 cells assessed as growth level at 10 uM after 48 hrs by SRB assay; assay type: functional
# [18] = Cytotoxicity against human Hs578T cells assessed as growth inhibition at 10 uM after 48 hrs by SRB assay; assay type: functional; conditions: Hs-578T, read-out: GI
# [19] = Cytotoxicity against human HOP62 cells assessed as growth level at 10 uM after 48 hrs by SRB assay; assay type: functional, HOP-62
# [20] = Cytotoxicity against human SW620 cells assessed as growth inhibition at 10 uM after 48 hrs by SRB assay; assay type: functional; conditions: SW-620, 48 h, read-out: GI
# [21] = Cytotoxicity against human HOP92 cells assessed as growth inhibition at 10 uM after 48 hrs by SRB assay; assay type: functional; conditions: HOP-92, 48 h, read-out: GI
# [22] = Cytotoxicity against human IGROV1 cells assessed as growth inhibition at 10 uM after 48 hrs by SRB assay; assay type: functional; conditions: IGROV-1, 48 h, read-out: GI
# [23] = Cytotoxicity against human SF268 cells assessed as growth level at 10 uM after 48 hrs by SRB assay; assay type: functional, SF-268
# [24] = Cytotoxicity against human MOLT4 cells assessed as growth level at 10 uM after 48 hrs by SRB assay; assay type: functional, MOLT-4
# [25] = Cytotoxicity against human LOXIMVI cells assessed as growth inhibition at 10 uM after 48 hrs by SRB assay; assay type: functional; conditions: LOX IMVI, read-out: GI
# [26] = Cytotoxicity against human OVCAR8 cells assessed as growth inhibition at 10 uM after 48 hrs by SRB assay; assay type: functional; conditions: OVCAR-8, 48 h, read-out: GI
# NCI-H23 [27] = assay: Cytotoxicity against human NCI-H23 cells assessed as growth inhibition at 10 uM after 48 hrs by SRB assay; assay type: functional; conditions: NCI-H23, 48 h, read-out: GI
# SN12C [28] = assay: Cytotoxicity against human SN12C cells assessed as growth inhibition at 10 uM after 48 hrs by SRB assay; assay type: functional; conditions: read-out: GI
# [29] = Cytotoxicity against human UO31 cells assessed as growth inhibition at 10 uM after 48 hrs by SRB assay; assay type: functional; conditions: UO-31, 48 h, read-out: GI
# [30] = Cytotoxicity against human UACC257 cells assessed as growth inhibition at 10 uM after 48 hrs by SRB assay; assay type: functional; conditions: UACC-257, 48 h, read-out: GI
# [31] = Cytotoxicity against human DU145 cells assessed as growth level at 10 uM after 48 hrs by SRB assay; assay type: functional, DU-145
# [32] = Cytotoxicity against human UACC62 cells assessed as growth inhibition at 10 uM after 48 hrs by SRB assay; assay type: functional; conditions: UACC-62, 48 h, read-out: GI
compound,measurement,setting,value
C=C1CC[C@@H]2[C@](C)(COC(C)=O)[C@H](OC(C)=O)CC[C@@]2(C)[C@@H]1CC(NCc1cccc(Cl)c1)C1=CCOC1=O (mixture of isomers),inhibition of growth at 10 µM,SR [1],88.5%
same,Activity,NCI-H322M,75.37%
same,Activity,[2],35.94%
same,inhibition of growth at 10 µM,786-0,38%
same,inhibition of growth at 10 µM,[3],26.9%
same,Activity,MDA-MB-468 [4],25.62%
same,Activity,SR [5],11.54%
same,Activity,[6],21.57%
same,Activity,U-251,30.91%
same,Activity,[7],94.35%
same,Activity,[8],38.27%
same,Activity,SN12C [9],62.07%
same,inhibition of growth at 10 µM,MDA-MB-231,35%
same,Activity,NCI-H23 [10],52.71%
same,Activity,NCI-H460,34.79%
same,inhibition of growth at 10 µM,[11],39.7%
same,Activity,NCI-H522,52.45%
same,inhibition of growth at 10 µM,MDA-MB-468 [12],74.4%
same,inhibition of growth at 10 µM,A549,45.8%
same,Activity,[13],50.4%
same,inhibition of growth at 10 µM,NCI-H226,53.7%
same,Activity,MDA-MB-435,51.65%
same,inhibition of growth at 10 µM,[14],14.1%
same,inhibition of growth at 10 µM,KM12,53.2%
same,Activity,[15],64.14%
same,inhibition of growth at 10 µM,[16],18.1%
same,Activity,[17],25.21%
same,Activity,MCF7,42.95%
same,inhibition of growth at 10 µM,[18],5.65%
same,Activity,[19],56%
same,inhibition of growth at 10 µM,[20],61.7%
same,inhibition of growth at 10 µM,[21],33.7%
same,inhibition of growth at 10 µM,[22],35.9%
same,Activity,[23],53.28%
same,Activity,[24],21.89%
same,inhibition of growth at 10 µM,[25],87.3%
same,inhibition of growth at 10 µM,[26],57.3%
same,inhibition of growth at 10 µM,NCI-H23 [27],47.3%
same,inhibition of growth at 10 µM,SN12C [28],37.9%
same,inhibition of growth at 10 µM,[29],53.1%
same,inhibition of growth at 10 µM,[30],74.8%
same,Activity,[31],81.85%
same,inhibition of growth at 10 µM,[32],58.8%

# Source: ChEMBL document CHEMBL3734705, “Synthesis and in vitro cytotoxicity of novel C-12 substituted-14-deoxy-andrographolide derivatives as potent anti-cancer agents” (2015)
